Measurements from article PMC10182956 (Archives of Toxicology, 2023).
“And” between values parts separate entries of the source, which are not always exact repeats. Equal values may be shown once. “Also recorded” adds a separate entry of the source.

What was measured:
[1] = atrazine: increase relative liver weight, ref Aguilar et al. [2009], ATSDR [2003], Food and Authority [2009a], Food and Authority [2009b], cited from earlier work; for NOAEL from literature (mg/kg BW/day): first value of cell NOAEL/LOAEL; for LOAEL from literature (mg/kg BW/day): second value of cell NOAEL/LOAEL
[2] = tested on: HepaRG cells; test: High-content imaging assay: lipid accumulation (Bodipy lipid droplets); assay type: cell-based; settings: for Lipid accumulation response (in words): population level, threshold ± 2 standard deviations of the response at the two lowest concentrations; for EC (BMC, 1 SD from control): read-out: LA: Benchmark concentration (µM) per imaging endpoint calculated with BMDS software
[3] = for OED (mg/kg BW/day): IVIVE derived median with 95% CI, from BMC of positive imaging endpoint, oral, daily dosing, Table 1; for OED: IVIVE derived median over all positive imaging endpoints, human simulation, Table 2; for OED compared with reported NOAEL, LOAEL concentrations or the exposure estimate (in words): human
[4] = set-up: method as in Literature column of Supplementary table 4; settings: value added to httk database; ref Supplementary table 4; cited from earlier work
[5] = Published in vivo pharmacokinetics (Css, plasma concentration, clearance); settings: human; for hepatocyte CLint: hepatocytes (back-calculated, no incubation), in vitro intrinsic hepatic clearance calculated from in vivo clearance with formula 3, read-out: Calculated Clint (ul/min/10^6 cells); for In vivo Css (µM): calculated with Css = (Dose*F)/(Cl*dosing interval) or k0/Cl from published pharmacokinetic parameters, ref Bowsher et al. 1994, Welling et al. 1977
Method: For the model evaluation, Css of selected reference chemicals were predicted using formula 1 with the same dose rate from the in vivo Css measurements. […] The formula to calculate Clint was derived from the function calc_hepatic_clearance within the httk package. Predicted Css values were then compared to published in vivo Css values. If there was no published in vivo Css available, Css was then calculated based on published in vivo pharmacokinetic parameters using the following formula (Supplementary table 3)4 Css(mg/L)=(Dose×F)/(Cl×dosinginterval)
Supplementary table 3. Comparison of benchmark concentration and predicted Css with published pharmacokinetic values. Where indicated, in vivo derived Css values were calculated using following formula: Css = (Dose*F)/(Cl*dosing interval) or Css = k0/Cl with F = bioavailability, Cl = clearance, k0 = infusion rate and Css = steady state concentration.

[6] = tested on: HepaRG cells; test: cells; settings: Homo sapiens, 24 h, read-out: NM: Benchmark concentration (µM) per imaging endpoint calculated with BMDS software
[7] = set-up: method as in earlier work; settings: fraction unbound plasma; human; ref Aegerion Pharmaceuticals 2012; Bowsher et al. 1994; Scheen 1996; cited from earlier work
[8] = tested on: HepaRG cells; test: cells; settings: Homo sapiens, 24 h, read-out: MMP: Benchmark concentration (µM) per imaging endpoint calculated with BMDS software
[9] = tested on: HepaRG cells; settings: for Mitochondrial membrane potential response (in words): population level, threshold ± 2 standard deviations of the response at the two lowest concentrations
[10] = cited from earlier work; for In vivo Css: published, ref Birkett and Miners 1991, Graham et al. 2011, Freedman and Somberg 1991, Vasudev et al. 2001
[11] = tested on: HepaRG cells; settings: for Oxidative stress response (in words): population level, threshold ± 2 standard deviations of the response at the two lowest concentrations; for OS: Benchmark concentration (µM) per imaging endpoint calculated with BMDS software: oxidative stress, Supplementary table 3
[12] = tested on: HepaRG cells; settings: HepaRG 24 h, population level; threshold ± 2 standard deviations of the response at the two lowest concentrations
[13] = tested on: HepaRG cells; test: Cell viability assessment (WST-1 assay); assay type: cell-based, human; settings: Homo sapiens, 24 h exposure, reference chemicals, 95% CI in brackets, read-out: EC50 µM (95% CI) from cell viability (WST-1)
Description: Undifferentiated HepaRG cells were purchased from Biopredic international (Saint Grégoire, France). HepaRG cells have unlimited growth capacity and phenotypic stability, stable enzymatic activities over 4 weeks of cultivation, and similar metabolic function to primary human hepatocytes, and also avoid limitations of primary cells such as donor variability and phenotypic instability (Aninat et al. [2006]; Guillouzo et al. [2007]; Lambert et al. [2009]; Lübberstedt et al. [2011]; Andersson et al. [2012]). The line contains two cell types, hepatocyte-like and cholangiocyte-like cells (Parent et al. [2004]), which allows for elucidation of cell-specific toxicity (Jossé et al. [2008]). Cells were seeded at a density of approximately 27′000 cells/cm^2 into a 150 × 25 mm petri dish and were cultured for 2 weeks in William’s E medium (cat. nr.: 32,551,020, ThermoFisher Scientific, Massachusetts, USA) supplemented with 2 mM glutamine, 10% (v/v) fetal bovine serum (FBS) good forte (cat. nr.: P40-47,500, PAN-Biotech, Aidenbach, Germany), 100 U/ml penicillin and 100 µg/ml streptomycin (cat. nr.: 15,140,122, ThermoFisher Scientific, Massachusetts, USA), 5 µg/ml Gibco recombinant AOF insulin (cat. nr.: A11382II, ThermoFisher Scientific, Massachusetts, USA) and 50 µM hydrocortisone hemisuccinate (cat. nr.: H4881, Sigma-Aldrich, St. Louis, USA) at 37 °C and 5% CO2. Differentiation was induced by culturing the cells for another 2 weeks in the above mentioned medium supplemented with 1.7% DMSO. After 4 weeks in culture, differentiated HepaRG cells were seeded at a high density of approximately 227′000 cells/cm^2 (72,000 cells/well with 100 µl per well) into black 96-well plates with a clear bottom (cat.nr.: 3603, Corning, New York, USA) and maintained for 10 days. After 10 days, cells were first adapted to treatment medium (culture medium containing 0.5% DMSO and 2% FBS) for 48 h and then used for cell viability and high-content imaging analysis.
Cell viability was analyzed using the WST-1 assay which is based on the measurement of mitochondrial dehydrogenase activity (cat. nr: ab155902, Abcam, Cambridge, UK). HepaRG cells were exposed to chemicals at defined concentrations for 24 h. Triton X-100 (0.01%) was a positive control. One hour before the end of incubation period, 10 µl of WST-1 reagent was added to each well, quickly mixed by shaking the plate, and returned to the cell culture incubator (37 °C, 5% CO2). After 1 h, absorbance was measured (450 nm, reference wavelength 620 nm) using a plate reader (Infinite M200 Pro, Tecan group, Männerdorf, Switzerland). Absorbance was then subtracted from the reference wavelength, corrected for background by subtracting values measured without cells, and then normalized to the solvent control, which was set to 100%. Dose–response data were fitted using drc package (Version 3.0.1) (Ritz et al. [2015]) in R 3.6.1. Data were from at least 3 independent experiments with 6 technical replicates per condition.

[14] = Homo sapiens, lipid accumulation, HepaRG 24 h, BMR one standard deviation from control mean, Table 1
[15] = human, ref Bowsher et al. 1994, Scheen 1996
[16] = Homo sapiens, lipid accumulation, HepaRG 24 h, Supplementary table 3
[17] = single cell analysis, highest concentration 250 µM

| SMILES | NOAEL from literature (mg/kg BW/day) [1] | Lipid accumulation response (in words) ([2]; HepaRG 24 h) | OED (mg/kg BW/day) [3] | EC (BMC) [6] | EC (BMC, 1 SD from control) [8] | Mitochondrial membrane potential response (in words) ([9]; HepaRG 24 h) | OED [3] | LOAEL from literature (mg/kg BW/day) [1] | EC (BMC, 1 SD from control) [2, 16] | Concentration at which decrease of mitochondrial membrane potential exceeded the threshold ([9]; HepaRG 24 h) | In vivo Css ([10]; human) | OS: Benchmark concentration (µM) per imaging endpoint calculated with BMDS software ([11]; HepaRG 24 h) | other results |
| --- | --- | --- | --- | --- | --- | --- | --- | --- | --- | --- | --- | --- | --- |
| CCNc1nc(Cl)nc(NC(C)C)n1 [Atrazine] | 5 mg/kg BW/day | induced significant lipid accumulation | 0.5 (95% CI 0.2–1.7) mg/kg BW/day |  |  |  |  |  |  |  |  |  | EC (BMC, 1 SD from control) [2, 14]: 19 µM |
| O=c1[nH]c(=O)n([C@@H]2O[C@H](CO)[C@@H](O)[C@@H]2F)cc1I [fialuridine] |  | neither induced lipid accumulation; also recorded: did not give rise to lipid accumulation |  | 45.1 µM | 6.3 µM | increased MMP | 5.6 mg/kg/day |  |  |  |  |  | LogP [4]: -0.9; hepatocyte CLint [5]: 0.173 µL/min/1e6 cells; In vivo Css (µM) [5]: 0.6^3 µM; Fup [7]: 0.375; Concentration at which increase of MMP (hyperpolarization) was observed / exceeded the threshold ([9]; HepaRG 24 h): 25 µM; In vivo clearance (L/h): Nonrenal clearance [10, 15]: 2.06 L/h; In vivo clearance (L/h): Renal clearance [10, 15]: 4.21 L/h; In vivo clearance (L/h): Total clearance [10, 15]: 6.27 L/h; Oxidative stress response (in words) ([11]; HepaRG 24 h): neither induced lipid accumulation, had any consistent impact on oxidative stress |
| O=C(O)c1cc(=O)[nH]c(=O)[nH]1 [Orotic acid] | 50 mg/kg BW/day | did not stimulate lipid accumulation | 61.2 (95% CI 21.1–134) mg/kg BW/day |  | 423 µM | dose-dependent increase in MMP exceeding the threshold |  | 100 mg/kg BW/day |  |  |  |  | OED compared with reported NOAEL, LOAEL concentrations or the exposure estimate (in words) [3]: overlapped; In vivo blood plasma conc. ([10]; ref Aguilar et al. [2009], D’Apolito et al. [2012], Li et al. [2009]): 0.15 to 0.3 µM |
| CCCCN(CCCC)SN(C)C(=O)Oc1cccc2c1OC(C)(C)C2 [Carbosulfan] | 0.5–1.2 mg/kg BW/day |  | 10.4 (95% CI 7–19.3) mg/kg BW/day |  |  |  |  | 5–62 mg/kg BW/day |  |  |  |  | EC (BMC, 1 SD from control) [2, 14]: 77 µM; OED compared with reported NOAEL, LOAEL concentrations or the exposure estimate (in words) [3]: overlapped |
| CN(C)C(=N)N=C(N)N [metformin] |  | accumulated in a dose-dependent manner above the threshold; also recorded: having the potential to induce lipid accumulation |  | 1940 µM |  |  | 6778 mg/kg/day |  | 987 µM | 50,000 µM | 5.2 µM |  | Number of apoptotic cells (nuclear morphology) response (in words) [12]: increased above the threshold; hepatocyte CLint [5]: 4.01 µL/min/1e6 cells; Fup [7]: 0.99; Concentration at which lipid accumulation was induced ([2]; HepaRG 24 h, increase): 25,000 µM and 50,000 µM; Concentration at which decrease of oxidative stress fell below the threshold ([11]; HepaRG 24 h): 50,000 µM |
| CCCCc1oc2ccccc2c1C(=O)c1cc(I)c(OCCN(CC)CC)c(I)c1 [amiodarone] |  | increased in a dose-dependent manner |  | 14.9 µM | 13.8 µM |  | 15.8 mg/kg/day |  |  | 25 µM | 5.4 to 6.0 µM | 5.35 µM | EC (BMC, 1 SD from control) ([2]; 24 h): 8.5 µM; Concentration at which increase of oxidative stress exceeded the threshold ([11]; HepaRG 24 h): 25 µM |
| CNC(=O)Oc1cccc2c1OC(C)(C)C2 [Carbofuran] | 0.03–0.1 mg/kg BW/day | did not stimulate lipid accumulation |  |  | 4980 µM | dose-dependent increase in MMP exceeding the threshold |  | 0.1–0.3 mg/kg BW/day |  |  |  |  |  |
| CN(C)[C@@H]1C(O)=C(C(N)=O)C(=O)[C@@]2(O)C(O)=C3C(=O)c4c(O)cccc4[C@@](C)(O)[C@H]3C[C@@H]12 [tetracycline] |  | accumulated in a dose-dependent manner above the threshold |  | 32.7 µM | 218 µM |  | 30.2 mg/kg/day |  | 32.9 µM | 250 µM |  | 69.7 µM | Number of apoptotic cells (nuclear morphology) response (in words) [12]: increased above the threshold; In vivo Css (µM) [5]: 9.7^3 µM; EC50 [13]: 238 µM; Mitochondrial membrane potential in hepatocyte-like and cholangiocyte-like cells (in words) [9, 17]: decrease of mitochondrial membrane potential was observed in both cell types; Concentration at which increase of oxidative stress exceeded the threshold ([11]; HepaRG 24 h): 125 µM and 250 µM; Oxidative stress in hepatocyte-like and cholangiocyte-like cells (in words) [11, 17]: oxidative stress levels were elevated in both cell types |
| CCCC(CCC)C(=O)O [valproic acid] |  | accumulated in a dose-dependent manner above the threshold |  | 612 µM | 1310 µM | did not affect MMP | 92.7 mg/kg/day |  | 570 µM |  | 346.7 to 693.4 µM | 1379.8 µM | Oxidative stress response (in words) ([11]; HepaRG 24 h): no changes were observed |
